{
  "source": "patent US6310090A",
  "about": "“Process and product for enhancing immune response in companion animals using a combination of antioxidants” (priority 2000, dated 2001)",
  "key": {"[1]": {"test_system": "PHA (nonspecific antigen)", "test": "delayed type hypersensitivity response (skin induration) to PHA, lutein supplementation", "assay_type": "in vivo, dog (Beagle)", "protocol": "(§1) Skin induration response was assessed in all dogs on weeks 0, 6, and 12. Dogs were injected intradermally in the flank area with saline (8.5 g/L; control), an attenuated polyvalent vaccine containing canine distemper virus, canine adenovirus type-2, canine parainfluenza virus and parvovirus (Vanguard 5, Smithkline Beacham, West Chester, Pa.; specific antigen), and PHA (0.5 g/L; nonspecific antigen). The doses of vaccine and PHA used were previously determined to provide optimal skin response in Beagle dogs of similar age. The injection site was clipped and wiped with 70% ethyl alcohol. The injection volume was 100 μL. Skin induration was measured at 0, 24, 48 and 72 h post-injection with the aid of a pressure-sensitive digital micrometer (Mitsutoyo, Tokyo, Japan) and response was expressed as a percentage of skin thickness measured at 0 h."}, "[2]": {"test_system": "polyvalent vaccine (specific antigen)", "test": "delayed type hypersensitivity response to vaccine / vaccine recognition, lutein supplementation", "assay_type": "in vivo, dog (Beagle)", "protocol": "as §1"}, "[3]": {"test_system": "peripheral blood mononuclear cells (PBMC)", "test": "mitogen-induced PBMC proliferation, lutein supplementation", "assay_type": "cell-based, dog (Beagle)", "protocol": "Blood collected on weeks 0, 2, 4, 8 and 12 were used to assess mitogen-induced lymphocyte proliferation by peripheral blood mononuclear cells (PBMC). Whole blood culture was used in order to mimic in vivo conditions. Mitogens used were phytohemagglutinin (PHA), concanavalin A (Con A) and pokeweed mitogen (PWM). Whole blood was thoroughly mixed and then diluted 1:12 with RPMI-1640 containing 25 mM of Hepes, penicillin (100 U/mL) and streptomycin (100 μg/mL) (Sigma, St. Louis, Mo.). […] Triplicate 150 μL volumes were pipetted into 96-well round bottom plates and 50 μl of the appropriate mitogens added. The final concentrations of the mitogens in culture were 2 and 10 μg/mL for PHA, 1 and 5 μg/mL for Con A and 0.5 and 2.5 μg/mL for PWM. The two mitogen concentrations gave maximum (the higher mitogen concentration) and suboptimal (lower mitogen concentration) proliferative responses in preliminary studies using blood from similar animals. The mixture was incubated for 72 h at 37° C. in a humidified incubator under a 5% CO2 atmosphere. Four hours prior to the termination of the incubation period, 20 μL of [^3 H]-thymidine (1 [μCi/well) were added. Cells were harvested onto fiberglass filters and radioactivity was counted by liquid scintillation. Proliferation response of PBMC was expressed as stimulation index (cpm of stimulated cultures/cpm of unstimulated cultures)."}, "[4]": {"test_system": "CD4+ T-helper cells", "test": "lymphocyte subsets by flow cytometry, lutein supplementation", "assay_type": "cell-based, dog (Beagle)", "settings": "5 and 10 mg lutein, week 12", "description": "(§3) Fifty six female Beagle dogs (17 to 18 months old; average body weight 11.4±0.4 kg) were randomly assigned to be supplemented daily with 0, 5, 10 or 20 mg lutein for 17 weeks. The lutein contained 76.66% lutein and 5.23% zeaxanthin. The lutein supplement was resuspended in soybean oil to the appropriate concentration and 1 mL administered perorally at 0800 h daily. Food (200 g/dog/d) was offered immediately after the lutein supplementation. […] All dogs were housed in 2×2 m pens (2 dogs/pen) in a temperature (20 to 22° C.) and light (14 h light) controlled facility. Body weight was recorded at weeks 0, 6, and 12.\n(§4) Blood was collected by jugular venipuncture into heparinized evacuated tubes on weeks 0, 2, 4, 8 and 12 and aliquots used for HPLC analysis and for assessing immune responses.\n(§5) Blood leukocytes were separated using Histopaque-1119 (Sigma, St. Louis, Mo.). Cells were washed three times with phosphate-buffered saline (PBS, pH 7.4) and contaminating erythrocytes were lysed in NH4 CI (8.4 g/L). Lymphocyte subsets were determined by flow cytometry (FACScan, Becton Dickinson, San Jose, Calif.). […]\n(§6) Appropriate negative controls were included to correct for background fluorescence. Data were expressed as the percentage of positive-staining cells corrected for cells stained nonspecifically with the secondary antibody."}, "[5]": {"test_system": "CD5+ total T cells", "test": "lymphocyte subsets by flow cytometry, lutein supplementation", "assay_type": "cell-based, dog (Beagle)", "settings": "weeks 4 and 8, dogs fed lutein", "description": "as §3, §4, §5, §6"}, "[6]": {"test_system": "MHC class II expressing lymphocytes", "test": "lymphocyte subsets by flow cytometry, lutein supplementation", "assay_type": "cell-based, dog (Beagle)", "settings": "20 mg lutein, week 8 and 12", "description": "as §3, §4, §5, §6"}, "[7]": {"test_system": "CD21+ B cells", "test": "lymphocyte subsets by flow cytometry, lutein supplementation", "assay_type": "cell-based, dog (Beagle)", "settings": "dietary lutein", "description": "as §3, §4, §5, §6"}, "[8]": {"test_system": "IL-2", "test": "IL-2 production by PHA-stimulated PBMC in whole blood cultures, lutein supplementation", "assay_type": "cell-based, dog (canine)", "protocol": "Whole blood was diluted 1:2 with RPMI-1640 supplemented with Hepes and antibiotics (described earlier) and 400 μL of diluted blood were pipetted into 48-well plates (Costar, Cambridge, Mass.). Cells were stimulated with PHA (400 μL of a 5 μg/mL solution) for 48 hours at […] in a 5% CO2 atmosphere. The plates were centrifuged at 200×g for 10 minutes and the supernatant was frozen at -80° C. The IL-2 content of the culture supernatant was determined in triplicate by ELISA (Intergen, Purchase, N.Y.). The polyclonal anti-human IL-2 cross-reacted with canine IL-2 and recombinant human IL-2 was used as the standard."}, "[9]": {"test_system": "IgG", "test": "IgG by single radial immunodiffusion, lutein supplementation", "assay_type": "in vivo, dog (canine)", "protocol": "(§2) Serum collected on weeks 0, 2, 4, 8 and 12 were analyzed for IgG and IgM concentrations by single radial immunodiffusion (SRID). In addition, all dogs were vaccinated with the polyvalent vaccine (Vanguard 5, Smithkline Beacham, West Chester, Pa.) on week 13 and again on week 15 to study the possible anamnestic effect of dietary lutein. Blood was collected weekly from week 13 through week 17. Goat antiserum to canine IgG (10%, whole molecule) or IgM (7.5%, μ chain specific) (ICN, Aurora, Ohio) was mixed with melted agarose (10 g/L in PBS; Sigma Chem. Co., St. Louis, Mo.) and the mixture solidified in SRID plates. Duplicate 5 μL volumes of serum or IgG (0, 2.88, 5.75, 11.5 and 23.0 mg/ml) or IgM (0, 0.25, 0.5, 1.0 and 2.0 mg/ml) standard were loaded into the wells. After incubating for 24 hours at room temperature in a humidified chamber, ring diameters were measured using a SRID reader (Transidyne General Corp., Ann Arbor, Minn.)."}, "[10]": {"test_system": "IgM", "test": "IgM by single radial immunodiffusion, lutein supplementation", "assay_type": "in vivo, dog (canine)", "settings": "after revaccination on week 15", "protocol": "as §2"}, "[11]": {"test_system": "plasma lipid peroxidation (malondialdehyde)", "test": "plasma lipid peroxidation (TBARS) assay, lutein supplementation", "assay_type": "in vivo, dog (Beagle)", "protocol": "Plasma lipid peroxidation activity was determined by measuring malondialdehyde (MDA) production. The standard used was 1,1,3,3-tetramethoxypropane JMP) (Sigma Chem. Co., St. Louis, Mo.). Duplicate 500 μL plasma samples were pipetted into 15 ml, glass tubes and 3 mL of 10 g/L phosphoric acid and 1 ml of 6 g/L TBA solution were added. The mixture was boiled in a water bath for 45 minutes. Tubes were allowed to cool and the TBA-MDA complex was extracted with 4 ml of n-butanol. The butanol layer was separated by centrifugation at 1,000×g for 10 minutes and absorbance was measured on at 532 nm (Beckman, Fullerton, Calif.). The TBARS activity was expressed in nmole MDA/L plasma."}, "[12]": {"test_system": "immune system", "test": "summary of the results from each of the studies (Table 1)", "assay_type": "in vivo, dog"}, "[13]": {"test_system": "canine thyroid adenocarcinoma cells", "description": "Fifty six female Beagle dogs (17 to 18 months old; average body weight 11.4±0.4 kg) were randomly assigned to be supplemented daily with 0, 5, 10 or 20 mg lutein for 17 weeks. The lutein contained 76.66% lutein and 5.23% zeaxanthin. The lutein supplement was resuspended in soybean oil to the appropriate concentration and 1 mL administered perorally at 0800 h daily. Food (200 g/dog/d) was offered immediately after the lutein supplementation. The basal diet met or exceeded the requirements for all essential nutrients (NRC 1985). All dogs were housed in 2×2 m pens (2 dogs/pen) in a temperature (20 to 22° C.) and light (14 h light) controlled facility. Body weight was recorded at weeks 0, 6, and 12.\nas §4\nCanine thyroid adenocarcinoma cells were used as target cells in assessing NK cell cytotoxic activity. […] Target cells were cultured in a T75 flask with 20 mL minimum essential medium (MEM; Sigma Chem. Co., St. Louis, Mo.) supplemented with 10% fetal calf serum (FC S), 100 U/mL of penicillin and 100 μg/mL of streptomycin. […] Optical density was measured at 570 nm using a microplate reader. The percentage of NK cell-specific lysis was calculated as follows: […]"}, "[14]": {"test_system": "CD8+ T-cytotoxic/suppressor cells", "settings": "week 12", "description": "as §3, §4, §5, §6"}, "[15]": {"test_system": "mouse splenocytes", "settings": "dietary lutein; cited from earlier work"}, "[16]": {"settings": "averaged across all treatments and all periods"}},
  "data": [
    {"smiles": "CC1=C[C@H](O)CC(C)(C)[C@H]1/C=C/C(C)=C/C=C/C(C)=C/C=C/C=C(C)/C=C/C=C(C)/C=C/C1=C(C)C[C@@H](O)CC1(C)C", "note": "[lutein]", "values": [
      {"measurement": "DTH response to PHA, treatment difference", "setting": "[1]; week 6, 48 and 72 h", "value": "no significant treatment difference"},
      {"measurement": "DTH response to PHA", "setting": "[1]; week 6, 24 h post-injection", "value": "dose-related DTH response"},
      {"measurement": "DTH response to PHA vs unsupplemented dogs", "setting": "[1]; week 12, 20 mg lutein", "value": "significantly higher"},
      {"measurement": "DTH response to PHA", "setting": "[1]; week 12, 24, 48 and 72 h", "value": "general dose-dependent increase"},
      {"measurement": "improvement of vaccine recognition", "setting": "[2]; FIG. 2, addition of lutein to the diet", "value": "≤ 32", "unit": "%"},
      {"measurement": "DTH response to vaccine", "setting": "[2]; week 6, 48 and 72 h post-injection", "value": "dose-related"},
      {"measurement": "DTH response to vaccine", "setting": "[2]; week 6, 24 h", "value": "not significant"},
      {"measurement": "DTH response to vaccine", "setting": "[2]; week 12", "value": "no significant dietary effect"},
      {"measurement": "PWM-stimulated PBMC proliferative response", "setting": "[3]; 10 mg lutein, week 8", "value": "higher proliferative response"},
      {"measurement": "Con A-stimulated PBMC proliferation", "setting": "[3]; 10 mg lutein, weeks 8 and 12, 5 μg/mL Con A", "value": "higher PBMC proliferation"},
      {"measurement": "PWM-stimulated PBMC proliferation vs unsupplemented controls", "setting": "[3]; 20 mg lutein, week 8 and 12, both concentrations of PWM", "value": "significantly higher PBMC proliferation"},
      {"measurement": "PHA-stimulated PBMC proliferative response vs unsupplemented dogs", "setting": "[3]; 20 mg lutein, weeks 8 (10 pg/mL PHA) and 12 (2 and 10 μg/mL PHA), P<0.01", "value": "enhanced"},
      {"measurement": "Con A-stimulated PBMC proliferation", "setting": "[3]; 20 mg lutein, weeks 8 and 12, both concentrations of Con A", "value": "higher PBMC proliferation"},
      {"measurement": "PHA-stimulated PBMC proliferation", "setting": "[3]; 5 and 10 mg lutein, week 8, 10 μg/ml PHA", "value": "higher PBMC proliferation"},
      {"measurement": "spontaneous proliferation by unstimulated PBMC", "setting": "[3]; no mitogen", "value": "did not significantly influence"},
      {"measurement": "PHA-stimulated PBMC response", "setting": "[3]; weeks 0 and 4", "value": "no significant effect"},
      {"measurement": "PWM-stimulated PBMC proliferation, treatment difference", "setting": "[3]; weeks 0 and 4", "value": "no significant treatment difference"},
      {"measurement": "% CD4+ cells", "setting": "[4]", "value": "higher"},
      {"measurement": "percentages of CD5+ cells vs unsupplemented controls", "setting": "[5]", "value": "generally had higher percentages"},
      {"measurement": "% MHC class II cell populations vs unsupplemented dogs", "setting": "[6]", "value": "elevated"},
      {"measurement": "CD21+ B cell population", "setting": "[7]", "value": "did not significantly influence"},
      {"measurement": "concentrations of IL-2 in culture medium", "setting": "[8]; averaged throughout the study, all treatments", "value": "15.7 ± 0.4", "unit": "ng/mL"},
      {"measurement": "production of IL-2 by PHA-stimulated PBMC", "setting": "[8]; throughout the experimental period", "value": "did not differ significantly"},
      {"measurement": "plasma IgG", "setting": "[9]; 5 mg lutein, week 16, after revaccination on week 15, P<0.05", "value": "higher"},
      {"measurement": "plasma IgG", "setting": "[9]; 20 mg lutein, week 17, after revaccination on week 15", "value": "higher"},
      {"measurement": "concentration of plasma IgM", "setting": "[10]", "value": "not changed"},
      {"measurement": "plasma TBARS activity", "setting": "[11]; averaged across all treatments and periods", "value": "95.8±0.1", "unit": "nmol MDA/L"},
      {"measurement": "effect on plasma TBARS activity", "setting": "[11]; lutein supplementation", "value": "did not significantly affect"},
      {"measurement": "Optimize vaccine recognition by the dog", "setting": "[12]; Table 1", "value": ".check mark."},
      {"measurement": "Optimize immune cell activity (B-cells)", "setting": "[12]; Table 1, Lutein column", "value": ".check mark."},
      {"measurement": "plasma retinol concentration", "setting": "[16]", "value": "3.63 ± 0.14", "unit": "µmol/L"},
      {"measurement": "plasma α-tocopherol concentration", "setting": "[16]", "value": "37 ± 2", "unit": "µmol/L"},
      {"measurement": "plasma lutein+zeaxanthin vs unsupplemented animals", "setting": "dog, in vivo", "value": "significantly higher"},
      {"measurement": "influence on plasma retinol and α-tocopherol", "setting": "lutein supplementation", "value": "did not influence"},
      {"measurement": "NK cell cytotoxic activity", "setting": "[13]", "value": "did not significantly influence"},
      {"measurement": "specific lysis of target cells by PBMC", "setting": "[13]; averaged across all treatments and sampling periods, E:T 10:1", "value": "49.1±1.1", "unit": "%"},
      {"measurement": "CD8+ population", "setting": "[14]", "value": "not influenced by the diet"},
      {"measurement": "lymphocyte proliferation in mouse splenocytes", "setting": "[15]", "value": "enhance lymphocyte proliferation"}
    ]}
  ]
}
